Data reported in paper PMC2606048 (Bioorganic & medicinal chemistry letters, 2008).
Where two headings read alike, the source gives them in different places. Values belong to the compound of their own block, whether it stands above or below them.

Experiments:
[1] = system: L1210, FM3A, Molt/4 and CEM cells; experiment: Antiproliferative activity summarised over the panel of four cancer cell lines; type: cell-based, murine and human; conditions: for Antiproliferative activity (in words): four cell lines; for IC50: read-out: IC50 (span over the four cell lines)
[2] = system: human T-lymphocyte CEM cells; experiment: Inhibition of proliferation of human T-lymphocyte CEM cells; type: cell-based
[3] = system: K562 (human chronic myelogenous leukemia) cells; experiment: K562 cell growth inhibition after 24 h; type: cell-based; conditions: read-out: IC50 determined for 24 h of growth
[4] = system: K562 (human chronic myelogenous leukemia) cells; experiment: Flow cytometric analysis of cell cycle distribution in K562 cells; type: cell-based; conditions: 24 h, compound at its 24 h IC50, propidium iodide
tubulin = experiment: Inhibition of tubulin polymerization; conditions: read-out: Tubulin assembly IC50 ± SD; Tubulin was at 10 μM
[5] = system: murine leukemia (L1210) cells; experiment: Inhibition of proliferation of murine leukemia; type: cell-based
[6] = system: human T-lymphocyte Molt4/C8 cells; experiment: Inhibition of proliferation of human T-lymphocyte Molt4/C8 cells; type: cell-based
[7] = system: murine mammary carcinoma (FM3A) cells; experiment: Inhibition of proliferation of murine mammary carcinoma; type: cell-based

Compound: COc1cc(C(=O)c2c(N)sc3c2CCN(C(=S)NC(C)C)C3)cc(OC)c1OC [Compound 4u]
- Antiproliferative activity (in words) [1]: inactive

Compound: COc1cc(C(=O)c2c(N)sc3cnccc23)cc(OC)c1OC [Compound 5, 2-amino-3-(3′,4′,5′-trim-ethoxybenzoyl)thieno[2,3-c]pyridine]
- fold less potent than 2a [2]: 13 fold
- IC50 ([3]; Homo sapiens, K562, 24 h): 500 nM
- Effect on cell cycle distribution [4]: marked increase in the percentage of cells blocked in the G2-M phase
- IC50 (tubulin): 5400 ± 400 nM

Compound: COc1cc(C(=O)c2c(N)sc3c2CCN(C)C3)cc(OC)c1OC [Compound 4a]
- IC50 [1]: > 10000 nM

Compound: COc1ccc(/C=C\c2cc(OC)c(OC)c(OC)c2)cc1O [CA-4 (1), combretastatin A-4, reference compound]
- IC50 ([5]; Mus musculus, L1210, read-out: IC50 L1210): 2.8 ± 1.1 nM

- IC50 [1]: 4800 to 6900 nM
Compound: CCNC(=S)N1CCc2c(sc(N)c2C(=O)c2cc(OC)c(OC)c(OC)c2)C1 [Compound 4t]

- IC50 [1]: 730 to 1100 nM
Compound: COc1cc(C(=O)c2c(N)sc3c2CCN(C(=S)NC2CCCCC2)C3)cc(OC)c1OC [Compound 4w]

- IC50 [1]: 1600 to 4900 nM
Compound: CNC(=S)N1CCc2c(sc(N)c2C(=O)c2cc(OC)c(OC)c(OC)c2)C1 [Compound 4s]

- IC50 [1]: > 10000 nM
Compound: CCCN1CCc2c(sc(N)c2C(=O)c2cc(OC)c(OC)c(OC)c2)C1 [Compound 4c]

Compound: 2-amino-3-(3,4,5-trimethoxybenzoyl)-6-methoxycarbonyl-4,5,6,7-tetrahydrothieno[b]pyridine [Compound 4f]
- fold more potent than 4g ([5]; L1210 cells): 4 fold
- fold more potent than 4g ([6]; Molt4 cells): 6 fold
- fold more potent than 4g [2]: 5 fold
- IC50 ([3]; K562 cells, 24 h): 70 nM
- Effect on cell cycle distribution [4]: marked increase in the percentage of cells blocked in the G2-M phase
- IC50 (tubulin): 600 ± 20 nM

Compound: CCOC(=O)N1CCc2c(sc(N)c2C(=O)c2cc(OC)c(OC)c(OC)c2)C1 [Compound 4g]
- IC50 ([3]; Homo sapiens, K562, 24 h): 80 nM
- Effect on cell cycle distribution [4]: marked increase in the percentage of cells blocked in the G2-M phase
- IC50 [1]: 57 to 440 nM

- IC50 [1]: 1700 to 2100 nM
Compound: CCN1CCc2c(sc(N)c2C(=O)c2cc(OC)c(OC)c(OC)c2)C1 [Compound 4b]

- IC50 [1]: 1100 to 3900 nM
Compound: COc1cc(C(=O)c2c(N)sc3c2CCN(C(C)=O)C3)cc(OC)c1OC [Compound 4e]

- IC50 (tubulin): 1900 ± 100 nM
Compound: COc1cc(C(=O)c2c(N)sc3ccccc23)cc(OC)c1OC [Compound 2a, reference compound]

Compound: COc1cc(C(=O)c2c(N)sc3c2CCN(C(=O)NC(C)C)C3)cc(OC)c1OC [Compound 4m]
- Antiproliferative activity (in words) [1]: inactive

Compound: CCCOC(=O)N1CCc2c(sc(N)c2C(=O)c2cc(OC)c(OC)c(OC)c2)C1 [Compound 4h]
- fold reduction in activity on lengthening the alkyl chain (vs 4g) ([5]; L1210 cells): 10 fold
- fold reduction in activity on lengthening the alkyl chain (vs 4g) [7]: 25 fold
- fold reduction in activity on lengthening the alkyl chain (vs 4g) ([6]; Molt-4 cells): 1.5 fold
- fold reduction in activity on lengthening the alkyl chain (vs 4g) [2]: 3 fold

- IC50 [1]: > 10000 nM
Compound: COc1cc(C(=O)c2c(N)sc3c2CCN(Cc2ccccc2)C3)cc(OC)c1OC [Compound 4d]
